Assay results as given in patent US8846653B2, “Delta-tocotrienol treatment and prevention of pancreatic cancer” (University of South Florida, priority 2006, dated 2014).

Legend:
[1] = system: SW1990 cells; experiment: Annexin V-FITC staining, flow cytometry for apoptosis; type: cell-based, human; details: SW1990, varying concentrations, 24 hours
Method: FIG. 5 is a graph wherein SW1990 pancreatic cancer cells were treated with in varying concentrations of δ-tocotrienol or vehicle for 24 hours. Cells were collected and stained with Annexin V-FITC and analyzed by flow cytometry for apoptosis.
(§1) MiaPaCa2 and HPDE 6C7 cells were cultured, as discussed above, and treated with δ-tocotrienol or vehicle. […] MiaPaCa-2, BxPc-3, and SW1990 pancreatic cancer cells were treated with in varying concentrations of δ-tocotrienol or vehicle for 24 hours. The cells were then harvested for annexin V-FITC staining and analyzed by flow cytometry.

[2] = system: MiaPaCa-2 cells; experiment: as above; type: cell-based, human; details: MiaPaCa-2, varying concentrations, 24 hours
Method: FIG. 3 is a graph wherein MIA PaCa-2 pancreatic cancer cells were treated with in varying concentrations of δ-tocotrienol or vehicle for 24 hours. Cells were collected and stained with Annexin V-FITC and analyzed by flow cytometry for apoptosis.
as §1

[3] = Plasma and mouse tissue levels by HPLC-UV; type: in vivo
Description: FIG. 52 is a graph showing tissue levels of delta-tocotrienol. *p=0.0044; # p=0.0034; † p=0.0181.

[4] = system: pancreatic cancer metastasis; experiment: Pancreatic cancer metastasis in vivo (luminescence); parameters: species or system mouse
Description: Images show comparison of vehicle vs. 100 MPK
The apoptotic effect of delta-tocotrienol was selective for neoplastic cells as normal pancreatic cells and in vitro immortalized human pancreatic ductal epithelial cells were not sensitive to delta-tocotrienol.

[5] = system: HPDE 6C7 cells; experiment: Proliferation by MTT, increasing concentrations of δ-tocotrienol; type: cell-based, human; details: HPDE 6C7, 24 hours, even at the highest concentrations
Method: MIA PaCa2, SW1990, BXPC3, and HPDE 6C7 cells (3×10^3) were cultured as described in the Examples above, in 96-well plates and treated the following day with increasing concentrations of δ-tocotrienol.

[6] = system: MIA PaCa2 cells; experiment: MTT cell viability, δ-tocotrienol, fluorouracil or combination; type: cell-based, human
Method: FIG. 39 is a graph MIA PaCa2 pancreatic cancer cells (3×10^3) treated with indicated concentrations of delta-tocotrienol, fluorouracil (5FU), or a combination of the indicated delta-tocotrienol and 5FU.
The MiaPaCa 2 cells were plated as above into 96 well plates and treated the following day with increasing concentrations of δ-tocotrienol, fluorouracil (5FU), or a combination of δ-tocotrienol and fluorouracil. The cells were collected and analyzed for cell viability using an MTT assay. […] MIA PaCa2 cells (3×10^3) were cultured as described in the Examples above, in 96-well plates and treated the following day with vehicle, δ-tocotrienol, fluorouracil, or a combination of δ-tocotrienol and fluorouracil.

[7] = system: MIA PaCa2 cells; experiment: TUNEL staining; type: cell-based, human; details: MIA PaCa2, 20 μM, 24 hours, vs vehicle or treated HPDE 6C7
Method: In addition to its chemopreventive effects, δ-Tocotrienol induces apoptosis in pancreatic cancer. MIA PaCa2 cells were treated with either δ-tocotrienol or vehicle for 24 hours. Cells were collected and stained with annexin V-FITC and analyzed by flow cytometry for apoptosis. […] MIA PaCa2 cells and HPDE 6C7 cells were treated with vehicle or δ-tocotrienol (20 μM) for 24 hours, then harvested and stained for TUNEL. […] Cell lysates were prepared from MIA PaCa2 cells treated with 8-tocotrienol (20 μM) at progressive time intervals and proteins from lysates were run by SDS PAGE and immunoblotted for biomarkers of apoptosis.

[8] = system: MIA PaCa-2 cells (pZWL vector and myrAKT); experiment: Cell death (trypan blue) in vector and myrAKT MIA PaCa-2 cells; type: cell-based, human; details: MIA PaCa-2 vector vs myr-AKT cells, 24 hours, compared to vehicle
Method: FIG. 12 is a graph wherein MIA PaCa-2 cells (pZWL vector and myrAKT) were treated without serum vehicle or δ-tocotrienol (50 μM) for 24 hours, with and without a 10-hour caspase 8/3 inhibitor pretreatment. Cells were also treated with TRAIL as a positive control. Cells were then harvested, fixed, permeablized and stained with trypan blue.
To further identify the role of AKT in the apoptotic pathways noted in Example 2, functional overexpression of CA-AKT was analyzed in Mia-PaCa2 pancreatic cancer cells. MIA PaCa-2 cells were treated with pZWL vector and myrAKT, a retroviral vector encoding myristoylated AKT, with or without serum, vehicle, or δ-tocotrienol (40 or 50 μM) for 24 hours, with and without a 10-hour caspase 8 inhibitor pretreatment. Cells were also treated with TRAIL as a positive control. Cells were then harvested, fixed, permeablized and stained with trypan blue.
The myristoylated AKT rescued δ-tocotrienol suppression PI3K-AKT signaling. The MiaPaCa-2 parental cell lines were stably transfected using constitutively active myristoylated AKT in a pWZL vector construct to generate MiaPaCa-2AKT cells. […] Lastly, pretreatment with caspase 3, 8 and 9 inhibitors rescued tocotrienol induced cell death.

[9] = system: p-cRaf, p-MEK, and p-ERK; experiment: Immunoblot of downstream phosphorylated targets of oncogenic Ras; type: cell-based, human; details: pancreatic cancer cell lines, 20 μM
Method: The Ras effector pathways Raf-MEK-ERK and PI3 kinase-AKT are important for cell proliferation and survival, respectively. Pancreatic cancer cell lines (MIA PaCa2, SW1990, BXPC3) and HPDE 6C7 cells were treated with 8-tocotrienol (20 μM) and cell lysates were collected and prepared at progressive time intervals as described above. Proteins from lysates were run by SDS PAGE and immunoblotted with the following antibodies: Ras, p-cRaf (ser 338), p-MEK1/2, MEK1/2, pERK 44/42, ERK 44/42 (Cell Signaling) and c-Raf (BD Transduction Laboratories). […] The MIA PaCa2 and SW1990 cells were then tested for AKT inhibition. The cells were treated with δ-tocotrienol (20 μM) for 24 and 48 hours and cell lysates were run by SDS-PAGE and immunoblotted for p-AKT and AKT (Cell Signaling). […] Taken together, the inhibition of downstream effectors of oncogenic Ras signaling by δ-tocotrienol without an effect on Ras protein levels may indicate a negative regulatory role of 8-tocotrienol on the function of oncogenic Ras. The pancreatic ductal epithelial cell proliferative inhibition by δ-tocotrienol was tested to see if it occurs through blocking aberrant signal transduction cascades. […]

With `CC(C)=CCC/C(C)=C/CC/C(C)=C/CC[C@]1(C)CCc2cc(O)cc(C)c2O1` [T3 delta, delta tocotrienol] the “induction of apoptosis (annexin V-FITC)” value [1] was “dose dependent induction of apoptosis”, the “induction of apoptosis (annexin V-FITC)” value [2] was “dose dependent induction of apoptosis” and the plasma level ([3]; mouse plasma) was “detectable in plasma”. The “localization in the pancreas compared to liver and pancreatic tumor levels (factor)” value ([3]; mouse tissue) was 10, the “tumor response at the highest dose” value ([4]; highest dose, compared to vehicle/PBS) was “tumor regression” and the pancreatic cancer metastasis ([4]; in vivo, vs vehicle/PBS) was “inhibits pancreatic cancer metastasis”. For the same compound, the antiproliferative effect [5] was “relatively resistant”, the “concentration at which the effect became significant vs vehicle” value [6] was 50 µM and the IC50 ([6]; at 24 hours) was 50 µM. The TUNEL staining [7] was “significant staining for TUNEL”, the cell death [8] was “induced more cell death in the vector cells than the myr-AKT cells” and the “downstream phosphorylated targets of oncogenic Ras p-cRaf, p-MEK, p-ERK” value [9] was “selectively inhibited”.
